Test results as given in US20240043943A1, “METHODS AND COMPOSITIONS FOR PROTEASE REPORTER ASSAYS AND MODULATORS” (712 NORTH, INC., priority 2021, published 2024).
“Also recorded” adds a separate entry of the source. Where a name gives a salt, the structure may show the parent alone. Read-outs that look alike come from different tables or passages of the source. Starred links: 1 amine or outer side, 2 acyl side, 3 side chain; linkers in the order of their positions; H or OH if unused. Positions of bridges follow the written chain, without caps; N, C: chain ends. Non-standard residues stand in square brackets, D forms with d. Residues, ends and D or L forms follow the SMILES beside them. Chains are numbered I, II in the order given. Actinocin(9to1) = Cc1c2oc3c(C)ccc(C(=O)[*:1])c3nc-2c(C(=O)[*:2])c(N)c1=O; NMeV = CN[C@H](C(=O)O)C(C)C; Sar = CNCC(=O)O

Columns and labels:
OPA1 = details: literature; cited from earlier work
OMA1 protease [1] = target: T1, OMA1 protease (Homo sapiens, UniProt Q96E52); assay: Rep#15 / Luke-S1 OMA1 reporter bioluminescence assay in Hek293T cells; format: cell-based; design: The OMA1 enzyme is dormant under physiological cell culture conditions in these cells; endogenous in cells; host or cells: Hek293T cells, transiently or stably (Luke-S1 line, ATCC PTA-127022) expressing reporter #15; details: for OMA1 modulating properties: drugs identified with the OMA1 assays (FIG. 17, FIG. 10)
T1 sequence (Q96E52 144-524): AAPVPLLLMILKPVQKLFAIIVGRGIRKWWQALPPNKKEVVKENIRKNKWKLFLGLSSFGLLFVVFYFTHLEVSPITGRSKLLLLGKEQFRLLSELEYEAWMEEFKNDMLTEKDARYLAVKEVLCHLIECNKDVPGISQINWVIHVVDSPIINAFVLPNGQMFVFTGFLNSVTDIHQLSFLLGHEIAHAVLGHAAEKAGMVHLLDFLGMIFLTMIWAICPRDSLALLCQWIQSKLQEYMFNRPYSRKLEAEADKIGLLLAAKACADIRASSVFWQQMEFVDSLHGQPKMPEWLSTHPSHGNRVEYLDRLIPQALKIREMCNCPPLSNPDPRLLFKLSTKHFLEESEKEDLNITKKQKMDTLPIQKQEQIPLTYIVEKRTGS
From the text: Example 1 provides a nonlimiting example of generation and use of a reporter of present invention and illustrates its function. To this end, generation and use of reporter gene #01 (SEQ ID NO: 01) and reporter gene #15 (SEQ ID NO: 15) are described and their function compared to each other. The general design of a reporter of present invention is illustrated in FIG. 1A and its working principle in FIG. 1B. A reporter in general, and reporter gene #01 and reporter gene #15 in particular, can be generated as follows. DNA sequences of a reporter may be codon-optimized in silico or by any other way for expression in a suitable host. DNA sequences of reporter genes #01 and #15 were codon-optimized for expression in humans (SEQ ID NO: 02 and SEQ ID NO: 16, respectively). The (optimized) sequences were synthesized and cloned into a pcDNA3.1 expression vector under the control of a CMV promotor (see FIG. 1 for an illustration of such vector). Of course, an expression system and a host should match for best results. The host in this example were Hek293T cells, which were maintained under standard culture conditions in DMEM with 10% Fetal Bovine Serum and 1% Pen/Strep. For an experiment, Hek293T cells were seeded in opaque white tissue-culture treated 96-well plates at 80% confluency and transfected with vectors carrying reporter gene #01 and reporter gene #15 and 24 hours later incubated for 30 minutes at 37° C. in OptiMEM or in OptiMEM with 10 μM CCCP. After 30 minutes, the OptiMEM cell-culture media was replaced with luciferase substrate (furimazine, Promega) diluted 1:100 in OptiMEM, and bioluminescence was measured with a Fluoroskan Ascent FL (Thermo Scientific) using a 517 nm single-pass filter and 200 milliseconds integration time. […] Reporter #01 comprises a large part of OPA1's amino-terminus as mitochondrial targeting sequence, which is cleaved by the mitochondrial processing peptidase upon mitochondrial import (see Example 2). Reporter #15 was initially envisioned as a control for reporter #01. Reporter #15 therefore lacks the first 66 amino acids of reporter #01 believed to be essential for mitochondrial import.
Example 5 illustrates how mitochondrial toxicity can be measured with reporter and assays of present invention. The OMA1-OPA1 pathway basically serves as a “canary-in-the-coalmine” for a mitochondrial deterioration. […] Hek293T cells expressing reporter #01 and #15 were exposed to CCCP, tipranavir and sorafenib (in OptiMEM) for 30 minutes before the medium was replaced with furimazine (1:100), and bioluminescence measured.
The following non-limiting examples illustrate in more details the in vivo assessment of OMA1 protease activity utilizing an artificial luciferase reporter of present invention stably expressed in Hek293T cells.

OMA1 protease [2] = target: T1, OMA1 protease; details: literature; cited from earlier work
OMA1 protease [3] = target: T1, OMA1 protease; assay: Rep#15 assay with phenanthroline preincubation before CCCP (OMA1 inhibitor control); format: cell-based; design: The OMA1 enzyme is dormant under physiological cell culture conditions in these cells; endogenous in cells; host or cells: Hek293T cells, transiently or stably (Luke-S1 line, ATCC PTA-127022) expressing reporter #15; details: 500 μM phenanthroline 1 hour, then 10 μM CCCP 30 minutes
Procedure: Example 2 refers to FIG. 4 and illustrates hydrolysis of reporter #01 and reporter #15. For this example, transfected cells were selected by puromycin. Reporter cells were exposed for 30 minutes to 10 μM CCCP before being harvested in RIPA buffer and subjected to 12% SDS-PAGE followed by Western-blotting. […] Full-length reporter #01 has a predicted size of 39.6 kDa but was not detected in Western blots. […] At the same time, reporter #15 is not processed upon import, but migrated at its expected size of 31.9 kDa. (Example 7 establishes mitochondrial import by showing co-migration of reporter #15 with OPA1 and OMA1 in mitochondria-enriched fractions.) Reporter #15 appears to be more abundant and stable, which may explain its better performance. […] This provides additional evidence that reporter #15 is indeed localized in mitochondria where it is recognized and hydrolyzed by OMA1. […] Therefore, phenanthroline was used as a positive control in the reporter assay. If reporter #15 indeed is cleaved by OMA1, then phenanthroline should prevent this at least to a certain extend by inhibiting OMA1 and accordingly preserving the signal. Hek293T cells were transfected with reporter gene #15 as described in the preceding example. […] After 30 minutes, the medium was replaced with furimazine (1:100 in OptiMEM), and bioluminescence measured as described in Example 1.

mitochondria = details: FDA labels, cited from earlier work
OMA1 protease [4] = target: T1, OMA1 protease; assay: Rep#01 OMA1 reporter bioluminescence assay in Hek293T cells; format: cell-based; design: The OMA1 enzyme is dormant under physiological cell culture conditions in these cells; endogenous in cells; host or cells: Hek293T cells, transiently or stably (Luke-S1 line, ATCC PTA-127022) expressing reporter #15; details: 30 minutes exposure, CCCP 10 μM
From the text: Example 1 provides a nonlimiting example of generation and use of a reporter of present invention and illustrates its function. To this end, generation and use of reporter gene #01 (SEQ ID NO: 01) and reporter gene #15 (SEQ ID NO: 15) are described and their function compared to each other. The general design of a reporter of present invention is illustrated in FIG. 1A and its working principle in FIG. 1B. A reporter in general, and reporter gene #01 and reporter gene #15 in particular, can be generated as follows. DNA sequences of a reporter may be codon-optimized in silico or by any other way for expression in a suitable host. DNA sequences of reporter genes #01 and #15 were codon-optimized for expression in humans (SEQ ID NO: 02 and SEQ ID NO: 16, respectively). The (optimized) sequences were synthesized and cloned into a pcDNA3.1 expression vector under the control of a CMV promotor (see FIG. 1 for an illustration of such vector). Of course, an expression system and a host should match for best results. The host in this example were Hek293T cells, which were maintained under standard culture conditions in DMEM with 10% Fetal Bovine Serum and 1% Pen/Strep. For an experiment, Hek293T cells were seeded in opaque white tissue-culture treated 96-well plates at 80% confluency and transfected with vectors carrying reporter gene #01 and reporter gene #15 and 24 hours later incubated for 30 minutes at 37° C. in OptiMEM or in OptiMEM with 10 μM CCCP. After 30 minutes, the OptiMEM cell-culture media was replaced with luciferase substrate (furimazine, Promega) diluted 1:100 in OptiMEM, and bioluminescence was measured with a Fluoroskan Ascent FL (Thermo Scientific) using a 517 nm single-pass filter and 200 milliseconds integration time. […]
Example 5 illustrates how mitochondrial toxicity can be measured with reporter and assays of present invention. […] Hek293T cells expressing reporter #01 and #15 were exposed to CCCP, tipranavir and sorafenib (in OptiMEM) for 30 minutes before the medium was replaced with furimazine (1:100), and bioluminescence measured.

Row | Compound | OMA1 modulating properties (OMA1 protease [1]) | further results
1 | N.N.[Cl][Pt][Cl] [cisplatin] |  | OPA1 cleavage (OPA1): can promote OPA1 cleavage
2 | COc1cccc2c1C(=O)c1c(O)c3c(c(O)c1C2=O)C[C@@](O)(C(C)=O)C[C@@H]3O[C@H]1C[C@H](N)[C@H](O)[C@H](C)O1 [Daunorubicin hydrochloride] | OMA1 modulating properties | 
3 | Cc1ccc(NC(=O)c2ccc(CN3CCN(C)CC3)cc2)cc1Nc1nccc(-c2cccnc2)n1 [Imatinib] | OMA1 modulating properties | 
4 | Cc1cc(Nc2ncc(Cl)c(Nc3ccccc3S(=O)(=O)C(C)C)n2)c(OC(C)C)cc1C1CCNCC1 [Ceritinib] | OMA1 modulating properties | 
5 | CN(C)C(=O)c1cc2cnc(Nc3ccc(N4CCNCC4)cn3)nc2n1C1CCCC1 [Ribociclib] | OMA1 modulating properties | 
6 | CCCCC(=O)OCC(=O)[C@]1(O)Cc2c(O)c3c(c(O)c2[C@@H](O[C@H]2C[C@H](NC(=O)C(F)(F)F)[C@H](O)[C@H](C)O2)C1)C(=O)c1c(OC)cccc1C3=O [Valrubicin] | OMA1 modulating properties | 
7 | CNC(=O)c1cc(Oc2ccc(NC(=O)Nc3ccc(Cl)c(C(F)(F)F)c3)c(F)c2)ccn1 [Regorafenib] | OMA1 modulating properties | 
8 | CC(C)(O)CNc1nc(Nc2ccnc(C(F)(F)F)c2)nc(-c2cccc(C(F)(F)F)n2)n1 [Enasidenib] | OMA1 modulating properties | 
9 | COc1cccc2c1C(=O)c1c(O)c3c(c(O)c1C2=O)C[C@@](O)(C(=O)CO)C[C@@H]3O[C@H]1C[C@H](N)[C@H](O)[C@H](C)O1 [Doxorubicin hydrochloride] | OMA1 modulating properties | 
10 | Clc1ccc(C(c2ccccc2Cl)C(Cl)Cl)cc1 (stereo not drawn) [Mitotane] | OMA1 modulating properties | 
11 | O=C(c1ccc(OCCN2CCCCC2)cc1)c1c(-c2ccc(O)cc2)sc2cc(O)ccc12 [Raloxifene] | OMA1 modulating properties | 
12 | CC(=O)[C@]1(O)Cc2c(O)c3c(c(O)c2[C@@H](O[C@H]2C[C@H](N)[C@H](O)[C@H](C)O2)C1)C(=O)c1ccccc1C3=O [Idarubicin hydrochloride] | OMA1 modulating properties | 
13 | Dabrafenib mesylate | OMA1 modulating properties | 
14 | c1cnc2c(c1)ccc1cccnc12 [phenanthroline] |  | effect on OMA1 protease (OMA1 protease [2]): can inhibit OMA1 protease in vitro; bioluminescence signal of reporter #15 after CCCP with inhibitor pretreatment (OMA1 protease [3]): prevented reporter #15 deactivation; also recorded: largely preserved
15 | Cc1cc(Nc2ncnc3ccc(NC4=NC(C)(C)CO4)cc23)ccc1Oc1ccn2ncnc2c1 [Tucatinib] | OMA1 modulating properties | 
16 | CCC[C@@]1(CCc2ccccc2)CC(O)=C([C@H](CC)c2cccc(NS(=O)(=O)c3ccc(C(F)(F)F)cn3)c2)C(=O)O1 [tipranavir] |  | mitochondrial toxicity (mitochondria): exhibit mitochondrial toxicity; mitochondrial toxicity (mitochondria; listed as Tipranavir): cause mitochondrial toxicity
17 | CNC(=O)c1cc(Oc2ccc(NC(=O)Nc3ccc(Cl)c(C(F)(F)F)c3)cc2)ccn1 [sorafenib, Sorafenib] | OMA1 modulating properties | OPA1 cleavage (OPA1): can promote OPA1 cleavage; mitochondrial toxicity (mitochondria): exhibit mitochondrial toxicity; bioluminescence signal of reporter #15 (OMA1 protease [1]; Hek293T, 30 minutes exposure, CCCP 10 μM): significantly reduced signal; also recorded: significantly reduced bioluminescence; bioluminescence signal of reporter #01 (OMA1 protease [4]): significantly reduced bioluminescence; bioluminescence signal of reporter #01 (OMA1 protease [4]; listed as Sorafenib): comparable effects
18 | CC/C(=C(\c1ccccc1)c1ccc(OCCN(C)C)cc1)c1ccccc1 [Tamoxifen citrate] | OMA1 modulating properties | 
19 | FC(F)(F)c1ccc(CNc2ccc(Cc3c[nH]c4ncc(Cl)cc34)cn2)cn1 [Pexidartinib] | OMA1 modulating properties | 
20 | Cc1c2oc3c(C)ccc(C(=O)N[C@@H]4C(=O)N[C@H](C(C)C)C(=O)N5CCC[C@H]5C(=O)N(C)CC(=O)N(C)[C@@H](C(C)C)C(=O)O[C@@H]4C)c3nc-2c(C(=O)N[C@@H]2C(=O)N[C@H](C(C)C)C(=O)N3CCC[C@H]3C(=O)N(C)CC(=O)N(C)[C@@H](C(C)C)C(=O)O[C@@H]2C)c(N)c1=O [Dactinomycin] (I: T[dV]P[Sar][NMeV] / II: T[dV]P[Sar][NMeV]; ester I:1-I:C, II:1-II:C; linker I:N-II:N via Actinocin(9to1)) | OMA1 modulating properties | 
21 | CN1CCN(c2ccc(C(=O)Nc3n[nH]c4ccc(Cc5cc(F)cc(F)c5)cc34)c(NC3CCOCC3)c2)CC1 [Entrectinib] | OMA1 modulating properties | 
22 | O=C(/C=C\n1cnc(-c2cc(C(F)(F)F)cc(C(F)(F)F)c2)n1)NNc1cnccn1 [Selinexor] | OMA1 modulating properties | 
23 | C=CC(=O)Nc1cc(Nc2nccc(-c3cn(C)c4ccccc34)n2)c(OC)cc1N(C)CCN(C)C [Osimertinib] | OMA1 modulating properties | 
